Test results taken from patent US20110230403A1, “GLYCOSIDE DERIVATIVES AND USES THEREOF” (NOVARTIS AG, priority 2008, published 2011).

How the values were obtained:
[1] = molecular target: T1, human sodium glucose cotransporter 2 (Homo sapiens, UniProt P31639); assay: SGLT-2 assay: 14C-AMG uptake in CHO-hSGLT2 or HEK293-hSGLT2 cells; type: cell-based; settings: n = 1-4, hSGLT2-transfected cells, read-out: SGLT2 IC50 nM (n = 1-4)
T1 construct: expressed in transfected cells; host or cells: CHO-K1 (ATCC CCL-61) or HEK293 (ATCC CRL-1573), stably transfected with pZeoSV expression vector
T1 sequence (P31639 1-672): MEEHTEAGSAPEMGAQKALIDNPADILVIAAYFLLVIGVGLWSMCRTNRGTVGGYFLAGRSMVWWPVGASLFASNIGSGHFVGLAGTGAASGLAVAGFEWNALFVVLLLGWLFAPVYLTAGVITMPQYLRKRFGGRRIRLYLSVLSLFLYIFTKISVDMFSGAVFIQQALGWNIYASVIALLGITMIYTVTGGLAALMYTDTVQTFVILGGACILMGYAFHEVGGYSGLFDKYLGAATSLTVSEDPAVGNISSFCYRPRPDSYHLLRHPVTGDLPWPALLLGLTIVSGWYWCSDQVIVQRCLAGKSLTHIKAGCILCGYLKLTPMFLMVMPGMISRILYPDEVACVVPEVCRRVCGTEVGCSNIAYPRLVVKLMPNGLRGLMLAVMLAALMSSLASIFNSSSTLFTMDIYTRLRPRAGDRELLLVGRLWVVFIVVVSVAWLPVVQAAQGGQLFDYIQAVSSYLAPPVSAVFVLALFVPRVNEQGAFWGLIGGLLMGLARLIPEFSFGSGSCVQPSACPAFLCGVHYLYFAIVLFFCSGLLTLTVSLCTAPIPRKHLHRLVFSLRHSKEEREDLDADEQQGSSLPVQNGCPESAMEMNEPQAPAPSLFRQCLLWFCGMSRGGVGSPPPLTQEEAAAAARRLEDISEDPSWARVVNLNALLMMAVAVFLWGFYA
Procedure: These cell lines transport 14 C-labelled alpha-methyl-glucopyranoside (14 C-AMG, Amersham) into the interior of the cell in sodium-dependent manner.
The SGLT-2 assay is carried out as follows: CHO-hSGLT2 cells are cultivated in Ham's F12 Medium (BioWhittaker) with 10% foetal calf serum and 250 μg/mL zeocin (Invitrogen), and HEK293-hSGLT2 cells are cultivated in DMEM medium with 10% foetal calf serum and 250 μg/mL zeocin (Invitrogen). The cells are detached from the culture flasks by washing twice with PBS and subsequently treating with trypsin/EDTA. After the addition of cell culture medium the cells are centrifuged, resuspended in culture medium and counted in a Casy cell counter. Then 40,000 cells per well are seeded into a white, 96-well plate coated with poly-D-Iysine and incubated overnight at 37° C., 5% CO2. The cells are washenwice with 250 μl of assay buffer (Hanks Balanced Salt Solution, 137 mM NaCl, 5.4 mM KCl, 2.8 mM CaCl2, 1.2 mM MgSO4 and 10 mM HEPES (pH 7.4), 50 μg/mL of gentamycin). 250 μl of assay buffer and 5 μl of test compound are then added to each well and the plate is incubated for a further 15 minutes in the incubator. 5 μl of 10% DMSO are used as the negative control. The reaction is started by adding 5 μl of 14 C-AMG (0.05 μCi) to each well. After 2 hours' incubation at 37° C., 5% CO2, the cells are washed again with 250 μl of PBS (200C) and then lysed by the addition of 25 μl of 0.1 N NaOH (5 min. at 37° C.). 200 μl of MicroScint20 (Packard) are added to each well and incubation is continued for a further 20 min at 37° C. After this incubation the radioactivity of the 14 C-AMG absorbed is measured in a Topcount (Packard) using a 14 C scintillation program.

human SGLT1 = molecular target: T2, human SGLT1 (Homo sapiens, UniProt P13866); assay: hSGLT1 assay: analogous [14C]-AMG uptake in CHO-K1 or HEK293 cells expressing hSGLT1; type: cell-based; settings: n = 1-4, hSGLT1-transfected cells
T2 construct: expressed in transfected cells; host or cells: CHO-K1 or HEK293 cells
T2 sequence (P13866 1-664): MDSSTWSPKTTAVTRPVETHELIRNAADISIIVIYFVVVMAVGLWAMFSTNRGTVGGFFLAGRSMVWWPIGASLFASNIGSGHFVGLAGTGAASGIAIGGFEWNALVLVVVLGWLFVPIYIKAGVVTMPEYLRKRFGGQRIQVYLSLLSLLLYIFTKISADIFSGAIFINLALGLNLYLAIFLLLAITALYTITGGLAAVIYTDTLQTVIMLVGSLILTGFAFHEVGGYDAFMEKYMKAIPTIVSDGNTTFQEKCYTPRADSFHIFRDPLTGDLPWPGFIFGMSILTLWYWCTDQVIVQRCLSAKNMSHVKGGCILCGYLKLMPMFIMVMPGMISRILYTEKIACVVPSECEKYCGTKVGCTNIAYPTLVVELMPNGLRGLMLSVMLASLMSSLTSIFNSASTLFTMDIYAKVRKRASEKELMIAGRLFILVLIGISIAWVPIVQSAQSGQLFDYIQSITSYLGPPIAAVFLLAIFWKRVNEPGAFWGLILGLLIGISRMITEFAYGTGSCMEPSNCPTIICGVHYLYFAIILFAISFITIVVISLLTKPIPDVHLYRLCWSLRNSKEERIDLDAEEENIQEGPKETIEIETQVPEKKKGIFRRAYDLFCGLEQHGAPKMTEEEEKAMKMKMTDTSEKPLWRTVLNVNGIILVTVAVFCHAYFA
Procedure: To determine human SGLT1 inhibitory activity, an analogous test was set up in which the cDNA for hSGLTI (Genbank Ace. No. NM000343) instead of hSGLT2 cDNA is expressed in CHO-K1 or HEK293 cells. The uptake assay buffer in the case of the hSGLT1 assay contains 10 mM HEPES, 5 mM Tris, 140 mM NaCl, 2 mM KCl, 1 mM CaCl2, and 1 mM MgCl2, pH 7.4 containing 0.5 mM of α-methyl-D-glucopyranoside (AMG), 10 μM of [^14C]-α-methyl-D-glucopyranoside and different inhibitor concentrations.

| SMILES | IC50 [1] [nM] | IC50 (human SGLT1) [nM] |
| --- | --- | --- |
| CCOc1ccc(Cc2cc([C@@H]3O[C@H](CSc4cc(C(=O)N5CCC5)ccc4F)[C@@H](O)[C@H](O)[C@H]3O)ccc2Cl)cc1 [Example 37, Azetidin-1-yl-(3-{(2S,3S,4R,5R,6S)-6-[4-chloro-3-(4-ethoxy-benzyl)-phenyl]-3,4,5-trihydroxy-tetrahydro-pyran-2-ylmethylsulfanyl}-4-fluoro-phenyl)-methanone] | 3 | < 50 |
| CCOc1ccc(Cc2cc([C@@H]3O[C@H](CSc4cccc(C(=O)NC)c4)[C@@H](O)[C@H](O)[C@H]3O)ccc2Cl)cc1 [Example 40, 3-{(2S,3S,4R,5R,6S)-6-[4-Chloro-3-(4-ethoxy-benzyl)-phenyl]-3,4,5-trihydroxy-tetrahydro-pyran-2-ylmethylsulfanyl}-N-methyl-benzamide] | 13 | < 50 |
| CCOc1ccc(Cc2cc([C@@H]3O[C@H](CSc4cccc(C(=O)N5CCCC5)c4)[C@@H](O)[C@H](O)[C@H]3O)ccc2Cl)cc1 [Example 47, (3-{(2S,3S,4R,5R,6S)-6-[4-Chloro-3-(4-ethoxy-benzyl)-phenyl]-3,4,5-trihydroxy-tetrahydro-pyran-2-ylmethylsulfanyl}-phenyl)-pyrrolidin-1 yl-methanone] | 14 | < 50 |
| CCOc1ccc(Cc2cc([C@@H]3O[C@H](CSc4cccc(NC(C)=O)c4)[C@@H](O)[C@H](O)[C@H]3O)ccc2Cl)cc1 [Example 80, N-(3-{(2S,3S,4R,5R,6S)-6-[4-Chloro-3-(4-ethoxy-benzyl)-phenyl]-3,4,5-trihydroxy-tetrahydro-pyran-2-ylmethylsulfanyl}-phenyl)-acetamide] | 13 | < 100 |

Other lines, results leading:

| IC50 [1] [nM] | IC50 (human SGLT1) [nM] | SMILES |
| --- | --- | --- |
| 8 | < 50 | CCOc1ccc(Cc2cc([C@@H]3O[C@H](CSc4cccc(C(=O)N(C)C)c4)[C@@H](O)[C@H](O)[C@H]3O)ccc2Cl)cc1 [Example 50, 3-{(2S,3S,4R,5R,6S)-6-[4-Chloro-3-(4-ethoxy-benzyl)-phenyl]-3,4,5-trihydroxy-tetrahydro-pyran-2-ylmethylsulfanyl}-N,N-dimethyl-benzamide] |
| 42 | < 100 | CCOc1ccc(Cc2cc([C@@H]3O[C@H](CSc4cccc(C(N)=O)c4)[C@@H](O)[C@H](O)[C@H]3O)ccc2Cl)cc1 [Example 78, 3-{(2S,3S,4R,5R,6S)-6-[4-Chloro-3-(4-ethoxy-benzyl)-phenyl]-3,4,5-trihydroxy-tetrahydro-pyran-2-ylmethylsulfanyl}-benzamide] |
